Measurements from patent US10597388B2, “Pyridazinone herbicides” (FMC CORPORATION, priority 2014, dated 2020).

Experiments:
Assay in all cases: Test C greenhouse herbicide test, pre- and postemergence
Format in all cases: in vivo
[1] = test system: blackgrass (Alopecurus myosuroides)
How it was run: (§1)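 Visual ratings on a 0 to 100 scale (0 = no effect, 100 = complete control) versus untreated controls, scored 13–15 d after treatment. Soil-applied preemergence to seeded loam/sand; foliar postemergence to 1- to 4-leaf plants (2–18 cm) in peat-vermiculite mix; compounds formulated in solvent plus surfactant.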

[2] = test system: corn (Zea mays)
How it was run: as §1

[3] = test system: crabgrass, large (large crabgrass, Digitaria sanguinalis)
How it was run: as §1

[4] = test system: foxtail, giant (giant foxtail, Setaria faberii)
How it was run: as §1

[5] = test system: galium (catchweed bedstraw, Galium aparine)
How it was run: as §1

[6] = test system: johnsongrass (Sorghum halepense)
How it was run: as §1

[7] = test system: lambsquarters (Chenopodium album)
How it was run: as §1

[8] = test system: morningglory (Ipomoea coccinea)
How it was run: as §1

[9] = test system: nutsedge, yellow (yellow nutsedge, Cyperus esculentus)
How it was run: as §1

[10] = test system: oilseed rape (Brassica napus)
How it was run: as §1

[11] = test system: pigweed (Amaranthus retroflexus)
How it was run: as §1

[12] = test system: ryegrass, Italian (Italian ryegrass, Lolium multiflorum)
How it was run: as §1

[13] = test system: soybean (Glycine max)
How it was run: as §1

[14] = test system: velvetleaf (Abutilon theophrasti)
How it was run: as §1

[15] = test system: waterhemp (common waterhemp, Amaranthus rudis)
How it was run: as §1

[16] = test system: wheat (winter wheat, Triticum aestivum)
How it was run: as §1

[17] = Postemergence, 31 g ai/ha, scale 0 to 100 (0 no effect, 100 complete control)
[18] = Postemergence, 125 g ai/ha, scale 0 to 100, 0 is no effect, 100 is complete control
[19] = Postemergence, 250 g ai/ha, scale 0 to 100, 0 no effect, 100 complete control, 13 to 15 d
[20] = Preemergence, 31 g ai/ha, scale 0 to 100, 0 is no effect, 100 is complete control
[21] = Preemergence, 62 g ai/ha, scale 0 to 100, 0 is no effect, 100 is complete control
[22] = Preemergence, 125 g ai/ha, scale 0 to 100, 0 is no effect, 100 is complete control
[23] = Preemergence, 250 g ai/ha, scale 0 to 100 (0 no effect, 100 complete control)
[24] = postemergence, 62 g ai/ha, scale 0 to 100, 0 no effect, 100 complete control

CCCC(=O)Oc1c(C)nn(C)c(=O)c1-c1c(C)sc2c(C)cc(C)cc12 [Compound 106]
Plant response rating, Blackgrass [1, 17]: 45
Plant response rating, Blackgrass [1, 18]: 60
Plant response rating, Blackgrass [1, 19]: 75
Plant response rating, Blackgrass [1, 20]: 10
Plant response rating, Blackgrass [1, 21]: 50
Plant response rating, Blackgrass [1, 22]: 90
Blackgrass plant response rating [1, 23]: 85
Blackgrass plant response rating [1, 24]: 50
Plant response rating, Corn [2, 17]: 0
Plant response rating, Corn [2, 18]: 10
Plant response rating, Corn [2, 19]: 10
Plant response rating, Corn [2, 20]: 0
Plant response rating, Corn [2, 21]: 0
Plant response rating, Corn [2, 22]: 10
Corn plant response rating [2, 23]: 20
Corn plant response rating [2, 24]: 10
Plant response rating, Crabgrass, Large [3, 17]: 25
Plant response rating, Crabgrass, Large [3, 18]: 30
Plant response rating, Crabgrass, Large [3, 19]: 30
Plant response rating, Crabgrass, Large [3, 20]: 70
Plant response rating, Crabgrass, Large [3, 21]: 70
Plant response rating, Crabgrass, Large [3, 22]: 75
Crabgrass, Large plant response rating [3, 23]: 80
Crabgrass, Large plant response rating [3, 24]: 40
Plant response rating, Foxtail, Giant [4, 17]: 70
Plant response rating, Foxtail, Giant [4, 18]: 90
Plant response rating, Foxtail, Giant [4, 19]: 95
Plant response rating, Foxtail, Giant [4, 20]: 85
Plant response rating, Foxtail, Giant [4, 21]: 95
Plant response rating, Foxtail, Giant [4, 22]: 100
Foxtail, Giant plant response rating [4, 23]: 100
Plant response rating, Galium [5, 17]: 95
Plant response rating, Galium [5, 18]: 95
Plant response rating, Galium [5, 19]: 100
Plant response rating, Galium [5, 20]: 90
Plant response rating, Galium [5, 21]: 90
Plant response rating, Galium [5, 22]: 95
Galium plant response rating [5, 23]: 95
Plant response rating, Johnsongrass [6, 17]: 5
Plant response rating, Johnsongrass [6, 18]: 10
Plant response rating, Johnsongrass [6, 19]: 10
Plant response rating, Johnsongrass [6, 20]: 5
Plant response rating, Johnsongrass [6, 21]: 5
Plant response rating, Johnsongrass [6, 22]: 5
Johnsongrass plant response rating [6, 23]: 15
Plant response rating, Lambsquarters [7, 17]: 85
Plant response rating, Lambsquarters [7, 18]: 95
Plant response rating, Lambsquarters [7, 19]: 98
Plant response rating, Lambsquarters [7, 20]: 90
Plant response rating, Lambsquarters [7, 21]: 90
Plant response rating, Lambsquarters [7, 22]: 100
Lambsquarters plant response rating [7, 23]: 100
Plant response rating, Morningglory [8, 17]: 100
Plant response rating, Morningglory [8, 18]: 100
Plant response rating, Morningglory [8, 19]: 98
Plant response rating, Morningglory [8, 20]: 85
Plant response rating, Morningglory [8, 21]: 90
Plant response rating, Morningglory [8, 22]: 98
Morningglory plant response rating [8, 23]: 98
Plant response rating, Nutsedge, Yellow [9, 17]: 65
Plant response rating, Nutsedge, Yellow [9, 18]: 90
Plant response rating, Nutsedge, Yellow [9, 19]: 80
Plant response rating, Nutsedge, Yellow [9, 20]: 60
Plant response rating, Nutsedge, Yellow [9, 21]: 70
Plant response rating, Nutsedge, Yellow [9, 22]: 80
Nutsedge, Yellow plant response rating [9, 23]: 90
Plant response rating, Oilseed Rape [10, 17]: 60
Plant response rating, Oilseed Rape [10, 18]: 85
Plant response rating, Oilseed Rape [10, 19]: 95
Plant response rating, Oilseed Rape [10, 20]: 0
Plant response rating, Oilseed Rape [10, 21]: 0
Plant response rating, Oilseed Rape [10, 22]: 30
Oilseed Rape plant response rating [10, 23]: 90
Plant response rating, Pigweed [11, 17]: 70
Plant response rating, Pigweed [11, 18]: 90
Plant response rating, Pigweed [11, 19]: 90
Plant response rating, Pigweed [11, 20]: 98
Plant response rating, Pigweed [11, 21]: 98
Plant response rating, Pigweed [11, 22]: 100
Pigweed plant response rating [11, 23]: 100
Plant response rating, Ryegrass, Italian [12, 17]: 85
Plant response rating, Ryegrass, Italian [12, 18]: 90
Plant response rating, Ryegrass, Italian [12, 19]: 35
Plant response rating, Ryegrass, Italian [12, 20]: 50
Plant response rating, Ryegrass, Italian [12, 21]: 70
Plant response rating, Ryegrass, Italian [12, 22]: 85
Ryegrass, Italian plant response rating [12, 23]: 90
Plant response rating, Soybean [13, 17]: 0
Plant response rating, Soybean [13, 18]: 0
Plant response rating, Soybean [13, 19]: 10
Plant response rating, Soybean [13, 20]: 0
Plant response rating, Soybean [13, 21]: 0
Plant response rating, Soybean [13, 22]: 0
Soybean plant response rating [13, 23]: 0
Plant response rating, Velvetleaf [14, 17]: 80
Plant response rating, Velvetleaf [14, 18]: 90
Plant response rating, Velvetleaf [14, 19]: 100
Plant response rating, Velvetleaf [14, 20]: 40
Plant response rating, Velvetleaf [14, 21]: 60
Plant response rating, Velvetleaf [14, 22]: 85
Velvetleaf plant response rating [14, 23]: 90
Plant response rating, Waterhemp [15, 17]: 65
Plant response rating, Waterhemp [15, 18]: 75
Plant response rating, Waterhemp [15, 19]: 80
Plant response rating, Waterhemp [15, 20]: 70
Plant response rating, Waterhemp [15, 21]: 75
Plant response rating, Waterhemp [15, 22]: 80
Waterhemp plant response rating [15, 23]: 90
Plant response rating, Wheat [16, 17]: 0
Plant response rating, Wheat [16, 18]: 0
Plant response rating, Wheat [16, 19]: 5
Plant response rating, Wheat [16, 20]: 15
Plant response rating, Wheat [16, 21]: 0
Plant response rating, Wheat [16, 22]: 0
Wheat plant response rating [16, 23]: 0
